How the values were obtained:
[1] = molecular target: WalKc (Bacillus anthracis, UniProt A0A6H3AEB6)
[2] = molecular target: WalKc(H) (Bacillus anthracis, UniProt A0A6H3AEB6)
[3] = molecular target: WalKc(PH) (Bacillus anthracis, UniProt A0A6H3AEB6)
[4] = molecular target: WalR (Bacillus anthracis, UniProt A0A2P0HLU7)
Sequence of WalR (A0A2P0HLU7 1-235): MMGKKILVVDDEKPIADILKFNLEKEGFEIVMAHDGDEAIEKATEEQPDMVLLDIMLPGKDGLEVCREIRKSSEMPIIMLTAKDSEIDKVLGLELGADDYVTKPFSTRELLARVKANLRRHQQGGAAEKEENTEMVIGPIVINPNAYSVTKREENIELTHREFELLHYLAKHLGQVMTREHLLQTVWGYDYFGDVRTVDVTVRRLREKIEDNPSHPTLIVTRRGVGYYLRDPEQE

Sequence of WalKc(H) (A0A6H3AEB6 380-613 limits assumed): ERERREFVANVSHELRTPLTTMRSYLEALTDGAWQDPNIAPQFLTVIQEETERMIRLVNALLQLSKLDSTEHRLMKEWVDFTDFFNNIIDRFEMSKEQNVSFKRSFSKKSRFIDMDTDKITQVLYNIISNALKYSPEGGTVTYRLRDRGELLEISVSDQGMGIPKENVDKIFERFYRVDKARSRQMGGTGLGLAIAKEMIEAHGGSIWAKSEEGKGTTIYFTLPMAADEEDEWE
Sequence of WalKc(PH) (A0A6H3AEB6 263-613 limits assumed): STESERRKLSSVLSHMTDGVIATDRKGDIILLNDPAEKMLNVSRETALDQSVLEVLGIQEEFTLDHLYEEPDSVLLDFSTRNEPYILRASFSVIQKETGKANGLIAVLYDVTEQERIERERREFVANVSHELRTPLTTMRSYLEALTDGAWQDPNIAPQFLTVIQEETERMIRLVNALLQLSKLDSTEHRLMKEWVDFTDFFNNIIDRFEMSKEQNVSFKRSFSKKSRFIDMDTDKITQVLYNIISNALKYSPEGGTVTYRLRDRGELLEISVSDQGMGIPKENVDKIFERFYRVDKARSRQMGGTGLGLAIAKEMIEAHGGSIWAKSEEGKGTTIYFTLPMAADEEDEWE
Sequence of WalKc (A0A6H3AEB6 210-613 limits assumed): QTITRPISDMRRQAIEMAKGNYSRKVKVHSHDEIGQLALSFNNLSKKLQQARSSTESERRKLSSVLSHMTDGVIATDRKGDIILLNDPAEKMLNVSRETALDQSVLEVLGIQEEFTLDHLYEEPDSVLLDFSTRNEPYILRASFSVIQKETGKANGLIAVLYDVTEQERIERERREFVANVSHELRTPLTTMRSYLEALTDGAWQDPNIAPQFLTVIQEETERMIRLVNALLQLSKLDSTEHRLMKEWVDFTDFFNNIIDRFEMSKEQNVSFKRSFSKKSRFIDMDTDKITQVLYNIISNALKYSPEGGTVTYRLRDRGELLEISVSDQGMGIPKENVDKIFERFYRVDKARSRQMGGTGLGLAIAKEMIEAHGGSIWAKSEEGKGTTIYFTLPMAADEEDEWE

SMILES | autophosphorylation, 32P SDS-PAGE autoradiography [1] | autophosphorylation, 32P SDS-PAGE autoradiography [2] | autophosphorylation, 32P SDS-PAGE autoradiography [3] | phosphorylation of WalR, native PAGE with coomassie staining [4]
Nc1ncnc2c1ncn2[C@@H]1O[C@H](COP(=O)(O)OP(=O)(O)OP(=O)(O)O)[C@@H](O)[C@H]1O [ATP] | When WalKc was incubated with labeled ATP mixture, autophosphorylation could be detected | Both, WalKc(PH) and WalKc(H), appeared to be more efficient than WalKc in autophosphorylation | Both, WalKc(PH) and WalKc(H), appeared to be more efficient than WalKc in autophosphorylation | 
NC(=O)OP(=O)(O)O [carbamoyl phosphate] |  |  |  | Carbamoyl phosphate mediated phosphorylation of WalR was also found to be inefficient
